Experimental data as given in the NIST ThermoML archive (doi:10.1021/je0301489).
Several values for one entry are separate records, joined by “and”; a condition that tells them apart may be missing. Equal entries are not always repeated.

How the values were obtained:
[1] = 101.33 kPa, Liquid
[2] = refractive index (Na D-line) (dimensionless); conditions: 101.33 kPa, Liquid
[3] = xn = mol fraction of the nth substance listed; conditions: 101.33 kPa, Liquid
[4] = refractive index (Na D-line) (dimensionless); xn = mol fraction of the nth substance listed; conditions: 101.33 kPa, Liquid

C1COCCO1 [1,4-dioxane]
Conditions	mass density, 298.15 K [kg/m3]	mass density, 303.15 K [kg/m3]	mass density, 308.15 K [kg/m3]	refractive index, 298.15 K	refractive index, 303.15 K	refractive index, 308.15 K	speed of sound, 298.15 K	viscosity, 298.15 K	viscosity, 303.15 K [mPa·s]	viscosity, 308.15 K [mPa·s]
[1]	1027.6	1021.9	1016.2	–	–	–	1347 m/s and 1348 m/s	1.166 mPa·s and 1.167 mPa·s	1.069	0.984
[2]	–	–	–	1.4201 and 1.4202	1.417	1.4144	–	–	–	–

C1COCCO1 [1,4-dioxane] + CCCCCCCCOC(=O)c1ccccc1C(=O)OCCCCCCCC
x1 = 1
Conditions	mass density, 298.15 K [kg/m3]	mass density, 303.15 K [kg/m3]	mass density, 308.15 K [kg/m3]	refractive index, 298.15 K	refractive index, 303.15 K	refractive index, 308.15 K	speed of sound, 298.15 K [m/s]	viscosity, 298.15 K [mPa·s]	viscosity, 303.15 K [mPa·s]	viscosity, 308.15 K [mPa·s]
[3]	1027.6	1021.9	1016.2	–	–	–	1348	1.166	1.069	0.984
[4]	–	–	–	1.4202	1.417	1.4144	–	–	–	–

C1COCCO1 [1,4-dioxane] + CCOC(=O)C(=O)OCC
x1 = 1
Conditions	mass density, 298.15 K [kg/m3]	mass density, 303.15 K [kg/m3]	mass density, 308.15 K [kg/m3]	refractive index, 298.15 K	refractive index, 303.15 K	refractive index, 308.15 K	speed of sound, 298.15 K [m/s]	viscosity, 298.15 K [mPa·s]	viscosity, 303.15 K [mPa·s]	viscosity, 308.15 K [mPa·s]
[3]	1027.6	1021.9	1016.2	–	–	–	1348	1.167	1.069	0.984
[4]	–	–	–	1.4202	1.417	1.4144	–	–	–	–

C1COCCO1 [1,4-dioxane] + CCOC(=O)CC(C)=O
x1 = 1
Conditions	mass density, 298.15 K [kg/m3]	mass density, 303.15 K [kg/m3]	mass density, 308.15 K [kg/m3]	refractive index, 298.15 K	refractive index, 303.15 K	refractive index, 308.15 K	speed of sound, 298.15 K [m/s]	viscosity, 298.15 K [mPa·s]	viscosity, 303.15 K [mPa·s]	viscosity, 308.15 K [mPa·s]
[3]	1027.6	1021.9	1016.2	–	–	–	1347	1.166	1.069	0.984
[4]	–	–	–	1.4201	1.417	1.4144	–	–	–	–

C1COCCO1 [1,4-dioxane] + CCOC(=O)c1ccccc1C(=O)OCC
x1 = 1
Conditions	mass density, 298.15 K [kg/m3]	mass density, 303.15 K [kg/m3]	mass density, 308.15 K [kg/m3]	refractive index, 298.15 K	refractive index, 303.15 K	refractive index, 308.15 K	speed of sound, 298.15 K [m/s]	viscosity, 298.15 K [mPa·s]	viscosity, 303.15 K [mPa·s]	viscosity, 308.15 K [mPa·s]
[3]	1027.6	1021.9	1016.2	–	–	–	1347	1.167	1.069	0.984
[4]	–	–	–	1.4202	1.417	1.4144	–	–	–	–

CCOC(=O)C(=O)OCC [diethyl ethanedioate] + C1COCCO1
Conditions	mass density, 298.15 K [kg/m3]	mass density, 303.15 K [kg/m3]	mass density, 308.15 K [kg/m3]	refractive index, 298.15 K	refractive index, 303.15 K	refractive index, 308.15 K	speed of sound, 298.15 K [m/s]	viscosity, 298.15 K [mPa·s]	viscosity, 303.15 K [mPa·s]	viscosity, 308.15 K [mPa·s]
[3], x2 = 0	1072.9	1066.2	1060.8	–	–	–	1276	1.759	1.581	1.437
[3], x2 = 0.1094	1070.9	1064.2	1058.1	–	–	–	1284	1.69	1.539	1.388
[3], x2 = 0.2069	1067.5	1061.4	1055.3	–	–	–	1292	1.631	1.487	1.343
[3], x2 = 0.3098	1064.4	1058.3	1052.1	–	–	–	1301	1.566	1.428	1.291
[3], x2 = 0.4009	1061.1	1055	1048.9	–	–	–	1310	1.505	1.375	1.245
[3], x2 = 0.4975	1057.3	1051.1	1045	–	–	–	1320	1.44	1.316	1.193
[3], x2 = 0.5978	1052.8	1046.7	1040.6	–	–	–	1329	1.375	1.259	1.143
[3], x2 = 0.7008	1047.7	1041.5	1035.4	–	–	–	1337	1.312	1.203	1.094
[3], x2 = 0.7971	1042.1	1036.1	1029.9	–	–	–	1343	1.259	1.157	1.055
[3], x2 = 0.8976	1035.5	1029.5	1023.6	–	–	–	1347	1.206	1.111	1.016
[4], x2 = 0	–	–	–	1.4084	1.406	1.4034	–	–	–	–
[4], x2 = 0.1094	–	–	–	1.4092	1.4068	1.4043	–	–	–	–
[4], x2 = 0.2069	–	–	–	1.4101	1.4077	1.4052	–	–	–	–
[4], x2 = 0.3098	–	–	–	1.4112	1.4087	1.4062	–	–	–	–
[4], x2 = 0.4009	–	–	–	1.4119	1.4094	1.407	–	–	–	–
[4], x2 = 0.4975	–	–	–	1.4129	1.4106	1.4084	–	–	–	–
[4], x2 = 0.5978	–	–	–	1.4144	1.4118	1.409	–	–	–	–
[4], x2 = 0.7008	–	–	–	1.4157	1.4132	1.4106	–	–	–	–
[4], x2 = 0.7971	–	–	–	1.417	1.4145	1.412	–	–	–	–
[4], x2 = 0.8976	–	–	–	1.4183	1.4158	1.4132	–	–	–	–

CCOC(=O)c1ccccc1C(=O)OCC [diethyl phthalate] + C1COCCO1
Conditions	mass density, 298.15 K [kg/m3]	mass density, 303.15 K [kg/m3]	mass density, 308.15 K [kg/m3]	refractive index, 298.15 K	refractive index, 303.15 K	refractive index, 308.15 K	speed of sound, 298.15 K [m/s]	viscosity, 298.15 K [mPa·s]	viscosity, 303.15 K [mPa·s]	viscosity, 308.15 K [mPa·s]
[3], x2 = 0	1115.1	1110.2	1105.6	–	–	–	1446	7.926	6.129	4.893
[3], x2 = 0.1133	1110.7	1105.8	1101	–	–	–	1435	6.52	5.327	4.134
[3], x2 = 0.2083	1106.5	1101.5	1096.6	–	–	–	1427	5.536	4.567	3.597
[3], x2 = 0.3086	1101.4	1096.3	1091.4	–	–	–	1418	4.593	3.813	3.032
[3], x2 = 0.409	1095.5	1090.4	1085.3	–	–	–	1408	3.793	3.18	2.568
[3], x2 = 0.5026	1089.1	1084	1078.7	–	–	–	1399	3.122	2.637	2.151
[3], x2 = 0.5985	1081.4	1076.1	1070.9	–	–	–	1390	2.544	2.184	1.824
[3], x2 = 0.702	1071.6	1066.1	1060.8	–	–	–	1380	2.037	1.753	1.468
[3], x2 = 0.8001	1060.2	1054.7	1049.2	–	–	–	1370	1.641	1.436	1.23
[3], x2 = 0.8975	1046.3	1040.7	1035	–	–	–	1359	1.319	1.18	1.042
[4], x2 = 0	–	–	–	1.5001	1.4978	1.4958	–	–	–	–
[4], x2 = 0.1133	–	–	–	1.4962	1.494	1.4917	–	–	–	–
[4], x2 = 0.2083	–	–	–	1.4924	1.4902	1.4882	–	–	–	–
[4], x2 = 0.3086	–	–	–	1.4882	1.486	1.4837	–	–	–	–
[4], x2 = 0.409	–	–	–	1.4826	1.4805	1.4783	–	–	–	–
[4], x2 = 0.5026	–	–	–	1.4768	1.4747	1.4724	–	–	–	–
[4], x2 = 0.5985	–	–	–	1.47	1.4676	1.4653	–	–	–	–
[4], x2 = 0.702	–	–	–	1.4608	1.4585	1.4564	–	–	–	–
[4], x2 = 0.8001	–	–	–	1.4504	1.4481	1.4457	–	–	–	–
[4], x2 = 0.8975	–	–	–	1.4376	1.435	1.4326	–	–	–	–
